Experimental findings from patent publication US9938273B2 (Plexxikon Inc., priority 2015, dated 2018) are described below.

Experiment [1] addresses T1, FLT3-D835Y (Homo sapiens, UniProt P36888, D835Y).
T1 construct: purchased Invitrogen PV3967
T1 sequence (P36888 27-993 D835Y): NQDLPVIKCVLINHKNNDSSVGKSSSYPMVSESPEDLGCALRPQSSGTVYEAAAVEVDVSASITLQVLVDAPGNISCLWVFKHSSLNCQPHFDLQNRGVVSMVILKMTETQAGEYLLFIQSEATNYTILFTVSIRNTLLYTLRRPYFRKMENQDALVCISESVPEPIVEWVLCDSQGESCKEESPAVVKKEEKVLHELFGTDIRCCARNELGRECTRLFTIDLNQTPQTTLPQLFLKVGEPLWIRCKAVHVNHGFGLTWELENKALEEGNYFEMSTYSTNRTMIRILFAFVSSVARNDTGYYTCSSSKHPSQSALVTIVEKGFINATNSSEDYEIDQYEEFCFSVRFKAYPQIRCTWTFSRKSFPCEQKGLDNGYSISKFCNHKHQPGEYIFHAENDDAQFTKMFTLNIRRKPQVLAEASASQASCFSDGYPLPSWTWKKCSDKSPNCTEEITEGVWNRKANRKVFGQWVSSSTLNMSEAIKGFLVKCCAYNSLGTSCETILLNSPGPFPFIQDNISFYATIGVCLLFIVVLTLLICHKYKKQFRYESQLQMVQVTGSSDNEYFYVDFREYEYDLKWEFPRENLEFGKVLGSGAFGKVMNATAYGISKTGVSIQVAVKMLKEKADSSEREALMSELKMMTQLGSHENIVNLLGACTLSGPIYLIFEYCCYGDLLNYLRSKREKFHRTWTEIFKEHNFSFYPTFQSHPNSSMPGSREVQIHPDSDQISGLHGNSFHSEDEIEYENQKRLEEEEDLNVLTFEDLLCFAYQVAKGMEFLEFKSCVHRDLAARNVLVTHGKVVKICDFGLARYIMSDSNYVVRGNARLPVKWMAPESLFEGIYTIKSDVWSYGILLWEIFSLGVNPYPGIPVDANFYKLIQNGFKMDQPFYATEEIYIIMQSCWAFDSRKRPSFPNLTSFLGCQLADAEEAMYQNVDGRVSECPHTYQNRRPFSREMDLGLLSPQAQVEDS
As to the kind of experiment: AlphaScreen kinase assay with recombinant enzyme, FLT3-D835Y. The experiment is classed as biochemical. The conditions noted are these: 8pt, GMean. In outline: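 Inhibition was measured as a drop in AlphaScreen signal arising from phosphotyrosine-bead capture of a biotinylated poly(Glu4-Tyr) peptide (30 nM) phosphorylated by recombinant kinase. For IC50 work the stated final concentration was 10 μM for the FLT3 mutants and 100 μM for c-KIT.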
Background: In Alpha technology, singlet oxygen from a donor bead excites a nearby acceptor bead.

Experiment [2] concerns MOLM-14 D835Y cells, FLT3 ITD and FLT3 D835Y. As to the kind of experiment: Cell proliferation assay (CellTiter-Glo), MOLM-14 D835Y. Type of experiment: cell-based. The note with it: Homo sapiens, 72 h, 3d-Growth, GMean. In outline: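 MOLM-14 AML cells (endogenous FLT3 ITD, AC220-selected D835Y or F691L variants) or murine Ba/F3 expressing full-length FLT3 ITD/D835Y, without IL-3 for FLT3 dependence, 1×10^4 cells/well. Eight-point 1:3 series from 1 μM final, 0.2% DMSO, 3 days at 37 °C. CellTiter-Glo luminescence (ATP) gave IC50.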
(Cellular ATP, detected with luciferase, serves as a proxy for viable cell number.)

What is called IC50 is the concentration that gives 50% inhibition.

With `CNC1CCN(C(=O)c2cccc(-c3cnc4[nH]c(-c5ccc(F)cc5)cc4c3)n2)C1` (stereo not shown) [Compound P-0055, [6-[2-(4-fluorophenyl)-1H-pyrrolo[2,3-b]pyridin-5-yl]-2-pyridyl]-[3-(methylamino)pyrrolidin-1-yl]methanone], the IC50 in experiment [1] and in experiment [2] was 0.0001 to 10 µM each time.
In the case of `CCc1ncc(-c2cc3cc(-c4cccc(C(=O)NC(C)(C)C#N)n4)cnc3[nH]2)cn1` [Compound P-0205, N-(1-cyano-1-methyl-ethyl)-6-[2-(2-ethylpyrimidin-5-yl)-1H-pyrrolo[2,3-b]pyridin-5-yl]pyridine-2-carboxamide], the IC50 in experiment [1] and in experiment [2] was 0.0001 to 10 µM in each case.
On to `CNC1CN(C(=O)c2cccc(-c3cnc4[nH]c(-c5ccccc5)cc4c3)n2)C1` [Compound P-0052, [3-(methylamino)azetidin-1-yl]-[6-(2-phenyl-1H-pyrrolo[2,3-b]pyridin-5-yl)-2-pyridyl]methanone], for which the IC50 in experiment [1] and in experiment [2] was 0.0001 to 10 µM in each case.
For the compound `CC(C)(C#N)NC(=O)c1cccc(-c2cnc3[nH]c(-c4cccc(N5CCCS5(=O)=O)c4)cc3c2)n1` [Compound P-0199, N-(1-cyano-1-methyl-ethyl)-6-[2-[3-(1,1-dioxo-1,2-thiazolidin-2-yl)phenyl]-1H-pyrrolo[2,3-b]pyridin-5-yl]pyridine-2-carboxamide], the IC50 in experiment [1] and in experiment [2] was 0.0001 to 10 µM in each case.
As for `NC1CCN(S(=O)(=O)c2cccc(-c3cnc4[nH]c(-c5ccccc5)cc4c3)n2)CC1` [Compound P-0073, 1-[[6-(2-phenyl-1H-pyrrolo[2,3-b]pyridin-5-yl)-2-pyridyl]sulfonyl]piperidin-4-amine], the IC50 in experiment [1] and in experiment [2] was 0.0001 to 10 µM in each case.
On to `O=S(=O)(NC1CCNCC1)c1cccc(-c2cnc3[nH]c(-c4ccccc4)cc3c2)n1` [Compound P-0086, 6-(2-phenyl-1H-pyrrolo[2,3-b]pyridin-5-yl)-N-(4-piperidyl)pyridine-2-sulfonamide], for which the IC50 in experiment [1] and in experiment [2] was 0.0001 to 10 µM throughout.
Take `CC(C)(C#N)NC(=O)c1cccc(-c2cnc3[nH]c(-c4cnc(N5CCCC5)nc4)cc3c2)n1` [Compound P-0202, N-(1-cyano-1-methyl-ethyl)-6-[2-(2-pyrrolidin-1-ylpyrimidin-5-yl)-1H-pyrrolo[2,3-b]pyridin-5-yl]pyridine-2-carboxamide]: the concentration for half-maximal inhibition (IC50) in experiment [1] and in experiment [2] was 0.0001 to 10 µM in each case.
Regarding `CC(C)(C#N)NC(=O)c1cccc(-c2cnc3[nH]c(-c4ccc(F)nc4)cc3c2)n1` [Compound P-0208, N-(1-cyano-1-methyl-ethyl)-6-[2-(6-fluoro-3-pyridyl)-1H-pyrrolo[2,3-b]pyridin-5-yl]pyridine-2-carboxamide], the IC50 in experiment [1] and in experiment [2] was 0.0001 to 10 µM in each case.
As for `COC1CN(C(=O)c2cccc(-c3cnc4[nH]c(-c5ccccc5)cc4c3)n2)C1` [Compound P-0091, (3-methoxyazetidin-1-yl)-[6-(2-phenyl-1H-pyrrolo[2,3-b]pyridin-5-yl)-2-pyridyl]methanone], the 50% inhibitory concentration (IC50) in experiment [1] and in experiment [2] was 0.0001 to 10 µM in each case.
On to `CCCOc1ncc(-c2cc3cc(-c4cccc(C(=O)NC(C)(C)C#N)n4)cnc3[nH]2)cn1` [Compound P-0206, N-(1-cyano-1-methyl-ethyl)-6-[2-(2-propoxypyrimidin-5-yl)-1H-pyrrolo[2,3-b]pyridin-5-yl]pyridine-2-carboxamide], for which the half-inhibitory concentration (IC50) in experiment [1] and in experiment [2] was 0.0001 to 10 µM each time.
Turning to `CC(C)(C#N)NC(=O)c1cccc(-c2cnc3[nH]c(-c4cnn(CC(F)(F)F)c4)cc3c2)n1` [Compound P-0193, N-(1-cyano-1-methyl-ethyl)-6-[2-[1-(2,2,2-trifluoroethyl)pyrazol-4-yl]-1H-pyrrolo[2,3-b]pyridin-5-yl]pyridine-2-carboxamide], the IC50 in experiment [1] and in experiment [2] was 0.0001 to 10 µM each time.
`O=C(Nc1cccc(-c2cnc3[nH]c(-c4ccccc4)cc3c2)n1)C1CNC1` [Compound P-0084, N-[6-(2-phenyl-1H-pyrrolo[2,3-b]pyridin-5-yl)-2-pyridyl]azetidine-3-carboxamide]: the IC50 in experiment [1] and in experiment [2] was 0.0001 to 10 µM each time.
On to `CC(C)(C#N)NC(=O)c1cccc(-c2cnc3[nH]c(-c4cnc(C(C)(C)O)nc4)cc3c2)n1` [Compound P-0211, N-(1-cyano-1-methyl-ethyl)-6-[2-[2-(1-hydroxy-1-methyl-ethyl)pyrimidin-5-yl]-1H-pyrrolo[2,3-b]pyridin-5-yl]pyridine-2-carboxamide], for which the IC50 in experiment [1] and in experiment [2] was 0.0001 to 10 µM throughout.
For `CNC1CCN(C(=O)c2cccc(-c3cnc4[nH]c(-c5cnn(CC(F)(F)F)c5)cc4c3)n2)C1` (stereo not shown) [Compound P-0061, [3-(methylamino)pyrrolidin-1-yl]-[6-[2-[1-(2,2,2-trifluoroethyl)pyrazol-4-yl]-1H-pyrrolo[2,3-b]pyridin-5-yl]-2-pyridyl]methanone], the IC50 in experiment [1] and in experiment [2] was 0.0001 to 10 µM each time.
With `CN1CCC(NC(=O)c2cccc(-c3cnc4[nH]c(-c5ccccc5)cc4c3)n2)C1` (stereo not shown) [Compound P-0064, N-(1-methylpyrrolidin-3-yl)-6-(2-phenyl-1H-pyrrolo[2,3-b]pyridin-5-yl)pyridine-2-carboxamide], the IC50 in experiment [1] and in experiment [2] was 0.0001 to 10 µM each time.
Turning to `CN1CC(NC(=O)c2cccc(-c3cnc4[nH]c(-c5ccccc5)cc4c3)n2)C1` [Compound P-0075, N-(1-methylazetidin-3-yl)-6-(2-phenyl-1H-pyrrolo[2,3-b]pyridin-5-yl)pyridine-2-carboxamide], the IC50 in experiment [1] and in experiment [2] was 0.0001 to 10 µM in each case.
On to `CC(C)(C#N)NC(=O)c1cccc(-c2cnc3[nH]c(-c4ccc(C(F)(F)F)nc4)cc3c2)n1` [Compound P-0201, N-(1-cyano-1-methyl-ethyl)-6-[2-[6-(trifluoromethyl)-3-pyridyl]-1H-pyrrolo[2,3-b]pyridin-5-yl]pyridine-2-carboxamide], for which the IC50 in experiment [1] and in experiment [2] was 0.0001 to 10 µM each time.
On to `CNC1CCN(C(=O)c2cccc(-c3cnc4[nH]c(-c5cn(C)nc5C)cc4c3)n2)C1` (stereo not shown) [Compound P-0049, [6-[2-(1,3-dimethylpyrazol-4-yl)-1H-pyrrolo[2,3-b]pyridin-5-yl]-2-pyridyl]-[3-(methylamino)pyrrolidin-1-yl]methanone], for which the IC50 in experiment [1] and in experiment [2] was 0.0001 to 10 µM in each case.
As to `O=S(=O)(NC1CCNC1)c1cccc(-c2cnc3[nH]c(-c4ccccc4)cc3c2)n1` (stereo not shown) [Compound P-0072, 6-(2-phenyl-1H-pyrrolo[2,3-b]pyridin-5-yl)-N-pyrrolidin-3-yl-pyridine-2-sulfonamide], the IC50 in experiment [1] and in experiment [2] was 0.0001 to 10 µM each time.
Consider `CC(C)Oc1ccc(-c2cc3cc(-c4cccc(C(=O)NC(C)(C)C#N)n4)cnc3[nH]2)cn1` [Compound P-0190, N-(1-cyano-1-methyl-ethyl)-6-[2-(6-isopropoxy-3-pyridyl)-1H-pyrrolo[2,3-b]pyridin-5-yl]pyridine-2-carboxamide], for which the IC50 in experiment [1] and in experiment [2] was 0.0001 to 10 µM each time.
As to `CC(C)(C#N)NC(=O)c1cccc(-c2cnc3[nH]c(-c4cncnc4)cc3c2)n1` [Compound P-0195, N-(1-cyano-1-methyl-ethyl)-6-(2-pyrimidin-5-yl-1H-pyrrolo[2,3-b]pyridin-5-yl)pyridine-2-carboxamide], the IC50 in experiment [1] and in experiment [2] was 0.0001 to 10 µM each time.
For the compound `NC1(C(F)(F)F)CCN(C(=O)c2cccc(-c3cnc4[nH]c(-c5ccccc5)cc4c3)n2)C1` (stereo not shown) [Compound P-0077, [3-amino-3-(trifluoromethyl)pyrrolidin-1-yl]-[6-(2-phenyl-1H-pyrrolo[2,3-b]pyridin-5-yl)-2-pyridyl]methanone], the IC50 in experiment [1] and in experiment [2] was 0.0001 to 10 µM throughout.
`O=C(c1cccc(-c2cnc3[nH]c(-c4ccccc4)cc3c2)n1)N1CCC(NC2CC2)C1` (stereo not shown) [Compound P-0085, [3-(cyclopropylamino)pyrrolidin-1-yl]-[6-(2-phenyl-1H-pyrrolo[2,3-b]pyridin-5-yl)-2-pyridyl]methanone]: the IC50 in experiment [1] and in experiment [2] was 0.0001 to 10 µM throughout.
